Results published in patent US5019574A, “3,4-diaminoquinoline and 3,4-diamino-5,6,7,8-tetrahydroquinoline compounds useful for improving psychoneural function” (Chugai Seiyaku Kabushiki Kaisha, priority 1988, dated 1991).
Read-outs that look alike come from different tables or passages of the source.

How the values were obtained:
acetylcholinesterase = biological target: T1, acetylcholinesterase (Electrophorus electricus, UniProt O42275); assay: Inhibition of acetylcholinesterase activity; assay type: biochemical; conditions: activity without drug compound taken as 100, average of three measurements, read-out: Inhibition rate (%)
T1 construct: purchased Sigma C-2888
Description: Inhibition of Acetylcholinesterase Activity:
Acetylcholinesterase activity was assayed in accordance with the method of S. H. Sterri and F. Fonnum described in European Journal of Biochemistry, 91: 215-222, 1978. The method consisted of incubating 0.5 μU of authentic acetylcholinesterase ([…]) (Sigma, No. C-2888) at 30° C. for 15 minutes in a 20 mM sodium phosphate buffer (pH 7.4). with 1.3 mM [1^-14 C] acetylcholine (0.025 μCi) being used as a substrate. Selected compounds of the general formula (I) were added at a concentration of 1 μM to the reaction solution and the resulting effect on enzymatic activity was evaluated.
The result was obtained as the average of three measurements and shown in Table 2 in terms of percentage, with the activity for the case where no drum compound was added being taken as 100.

[1] = test system: norepinephrine uptake into the synaptosomes; assay: Inhibition of catecholamine uptake: 3H-norepinephrine uptake into synaptosomes; assay type: biochemical, rats (F344/Crj); conditions: 1 μM; norepinephrine uptake in the absence of drug compounds taken as 100
Description: (§1) Inhibition of Catecholamine Uptake:
(§2) A crude synaptosomal fraction (P2) was obtained from the brain of rats (F344/Crj) in the usual manner. In accordance with the method of S. H. Snyder and J. T. Coyle described in Journal of Pharmacology and Experimental Therapeutics, 165(1), 78-86, 1969, the fraction P2 was incubated in a Krebs-Henseleit bicarbonate buffer solution at 37° C. for 10 minutes together with 50 nM ^3 H-norepinephrine (0.25 jμCi). Thereafter, the uptake of norepinephrine into the synaptosomes was measured by the filtration method. Selected compounds were added at a concentration of 1 μM to the solution being incubated and their effect on norepinephrine uptake was examined. The control drug was tetrahydroaminoacridine (THA).
The results are shown in Table 3 in terms of percentage, with norepinephrine uptake in the absence of drug compounds being taken as 100.

male ICR mice = assay: Improvement of memory and learning ability tested by passive avoidance response; assay type: in vivo; conditions: dose 10 (μg/kg i.p.); retention trial 24 hours after acquisition trial
Description: Improvement of memory and Learning Ability Tested by Passive Avoidance Response:
Four groups of male ICR mice (10-14 weeks old). each consisting of 10 animals, were used in the experiment. Except for one control group, the mice were administered with selected compounds of the present invention. The experimental chamber consisted of a light and a dark compartment and an electric current shock source was connected to the floor grid in the dark compartment.
The experimental sessions consisted of acclimation. acquisition, and retention trials and were performed for […], one trial per day. In the acclimation trial, animals were placed in the light compartment of the experimental chamber and left there for 5 minutes to acclimate them to the apparatus. In the acquisition trial which was conducted on the 2nd day, the animals were placed in the light compartment and when they entered the dark compartment, they were confined and given an a.c. electric shock (1 mA) through the floor grid for 10 seconds. In the retention trial which was conducted 24 hours after the acquisition trial, the animals were placed in the light compartment of the chamber and the step-through latency (i.e., the time required for the animals to enter the dark compartment) was measured. A physiological saline solution was administered at the acclimation trial to all of the animals. At the acquisition trial, selected compounds were administered in amounts of 10 μg/kg of body weight (1 ml/100 g). The control group was administered the same amount of physiological saline solution 60 minutes before the start of the trial. All administrations were intraperitoneal.

[2] = test system: uptake of dopamine into synaptosomes; assay: Inhibition of catecholamine uptake: 3H-dopamine uptake into synaptosomes; assay type: biochemical, rats (F344/Crj); conditions: 1 μM; dopamine uptake in the absence of drugs taken as 100
Description: as §2, §1
The uptake of dopamine into synaptosomes was measured by repeating the procedure of Test Example 2 except that 50 nM ^3 H-norepinephrine (0.25 μCi) was replaced by 15 nM ^3 H-dopamine (0.68 μCi). The control drug was tetrahydroaminoacridine (THA). The result is shown in Table 5 in terms of percentage, with dopamine uptake in the absence of drugs being taken as 100.

MAO-B = biological target: T2, MAO-B (Rattus norvegicus, UniProt P19643); assay: Inhibition of monoamine oxidase: MAO-B; assay type: biochemical, rats (F344/Crj); conditions: read-out: Inhibition rate (%) MAO-B
T2 construct: A crude synaptosomal fraction (P2) was obtained from the brain of rats (F344/Crj); from tissue; host or cells: rat (F344/Crj) brain, crude synaptosomal fraction (P2), homogenized
T2 sequence (P19643 1-520): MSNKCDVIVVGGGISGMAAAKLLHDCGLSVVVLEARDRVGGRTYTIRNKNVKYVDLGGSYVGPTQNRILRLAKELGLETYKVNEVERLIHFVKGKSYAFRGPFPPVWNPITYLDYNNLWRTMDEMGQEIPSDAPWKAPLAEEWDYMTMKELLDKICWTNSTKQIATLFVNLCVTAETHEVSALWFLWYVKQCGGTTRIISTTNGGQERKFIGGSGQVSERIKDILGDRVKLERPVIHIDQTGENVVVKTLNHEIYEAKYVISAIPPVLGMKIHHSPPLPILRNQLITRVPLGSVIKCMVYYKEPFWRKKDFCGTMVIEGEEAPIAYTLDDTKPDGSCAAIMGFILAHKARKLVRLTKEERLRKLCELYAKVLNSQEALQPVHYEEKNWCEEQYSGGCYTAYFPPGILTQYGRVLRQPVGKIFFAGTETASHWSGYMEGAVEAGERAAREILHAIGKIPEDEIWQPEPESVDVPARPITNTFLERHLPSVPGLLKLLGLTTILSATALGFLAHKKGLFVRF
Description: (§3) Inhibition of Monoamine Oxidase (MAO):
(§4) A crude synaptosomal fraction (P2) was obtained from the brain of rats (F344/Crj) in the usual manner and homogenized to perform MAO activity measurements. The substrate was 12 μM [^14 C]-serotonin in the case of MAO-A activity measurements, and 5 μM [^14 C]-2-phenethylamine in the case of MAO-B activity measurements. In accordance with the method of R. J. Wurtman and J. Axelrod described in Biochemical Pharmacol. 12, […], 1963, the homogenates were incubated in 100 mM phosphate buffer (pH 7.4) at 37° C. for 20 minutes and the effect of adding selected compounds at a concentration of 10 μM was evaluated.

MAO-A = biological target: T3, MAO-A (Rattus norvegicus, UniProt P21396); assay: Inhibition of monoamine oxidase: MAO-A; assay type: biochemical, rats (F344/Crj); conditions: read-out: Inhibition rate (%) MAO-A
T3 construct: A crude synaptosomal fraction (P2) was obtained from the brain of rats (F344/Crj); from tissue; host or cells: rat (F344/Crj) brain, crude synaptosomal fraction (P2), homogenized
T3 sequence (P21396 1-526): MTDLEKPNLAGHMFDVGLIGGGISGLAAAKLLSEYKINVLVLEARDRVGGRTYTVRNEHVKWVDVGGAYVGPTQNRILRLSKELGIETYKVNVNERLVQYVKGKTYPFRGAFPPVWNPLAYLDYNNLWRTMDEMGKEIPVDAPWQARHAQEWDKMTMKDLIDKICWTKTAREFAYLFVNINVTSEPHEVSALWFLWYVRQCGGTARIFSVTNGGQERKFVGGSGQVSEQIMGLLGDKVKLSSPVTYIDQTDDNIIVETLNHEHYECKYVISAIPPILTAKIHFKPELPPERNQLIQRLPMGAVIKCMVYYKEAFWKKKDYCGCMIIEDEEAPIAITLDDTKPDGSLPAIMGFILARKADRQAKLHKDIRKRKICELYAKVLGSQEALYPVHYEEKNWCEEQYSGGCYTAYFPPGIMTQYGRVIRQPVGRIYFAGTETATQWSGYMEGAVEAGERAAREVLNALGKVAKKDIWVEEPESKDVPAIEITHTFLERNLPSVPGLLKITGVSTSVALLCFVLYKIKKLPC
Description: as §3, §4

[3] = 10 μM, 5 μM [14C]-2-phenethylamine substrate, None = 100
[4] = 10 μM, 12 μM [14C]-serotonin substrate, None = 100

T1 sequence (O42275 24-633): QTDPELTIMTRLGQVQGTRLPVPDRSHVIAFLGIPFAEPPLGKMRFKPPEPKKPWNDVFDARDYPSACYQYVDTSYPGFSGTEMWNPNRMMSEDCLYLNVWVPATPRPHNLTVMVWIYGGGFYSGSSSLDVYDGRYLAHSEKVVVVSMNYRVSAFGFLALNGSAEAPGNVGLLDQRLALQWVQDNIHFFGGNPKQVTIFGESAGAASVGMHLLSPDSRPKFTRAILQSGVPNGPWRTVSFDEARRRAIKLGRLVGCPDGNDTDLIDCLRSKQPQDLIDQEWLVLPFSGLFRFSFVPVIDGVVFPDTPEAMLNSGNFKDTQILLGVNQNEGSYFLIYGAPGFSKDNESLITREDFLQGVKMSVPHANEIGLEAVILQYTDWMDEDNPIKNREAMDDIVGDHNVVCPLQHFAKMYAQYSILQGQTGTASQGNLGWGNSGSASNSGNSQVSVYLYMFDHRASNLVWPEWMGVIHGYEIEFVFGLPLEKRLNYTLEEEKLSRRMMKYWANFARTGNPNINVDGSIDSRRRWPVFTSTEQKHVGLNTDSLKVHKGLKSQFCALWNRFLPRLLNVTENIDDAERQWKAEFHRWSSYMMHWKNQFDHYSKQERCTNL

Compound	inhibition at 1 µM (acetylcholinesterase) [%]	Inhibition rate (%) [1] [%]	Step through latency (male ICR mice) [s]	Inhibition rate (%) [2] [%]	further results
Nc1c2c(nc(C3CCCCC3=O)c1N1CCOCC1)CCCC2 (centres unmarked) [Compound 41]	4.2	–	–	–	–
Nc1c(N2CCCCC2)cnc2ccccc12 [Compound 1, 4-amino-3-piperidinoquinoline]	–	69.1	–	–	–
CCNc1nc2ccccc2c(N)c1N1CCOCC1 [Compound 43, 4-amino-2-ethylamino-3-morpholinoquinoline]	–	78.8	109.1 ± 13.4	–	–
Nc1c2c(nc(C3CCCCC3)c1N1CCOCC1)CCCC2 [Compound 19, 4-amino-2-cyclohexyl-3-morpholino-5,6,7,8-tetrahydroquinoline]	21.8	83.2	107.1 ± 29.9	–	–
CCN(CC)c1c(C2CCCCC2)nc2c(c1N)CCCC2 [Compound 25]	30.1	75.3	–	76.4	–
CCCC(C)c1nc2ccccc2c(N)c1N1CCOCC1 (centres unmarked) [Compound 39]	–	71.9	108.3 ± 16.0	–	–
Nc1c(N2CCCCC2)c(Nc2ccccc2)nc2ccccc12 [Compound 35]	28.3	–	–	–	–
Nc1c2c(nc3ccccc13)CCCC2 [control, tetrahydroaminoacridine, reference compound]	–	–	–	–	inhibition at 10 µM (MAO-B): 90.3%; inhibition at 10 µM (MAO-A): 60.8%
CCNc1c(N2CCOCC2)nc2ccccc2c1N [Compound 52, 4-amino-3-ethylamino-2-morpholinoquinoline]	–	79.8	–	57.8	inhibition at 10 µM (MAO-B; [3]): 63%; inhibition at 10 µM (MAO-A; [4]): 0%
Nc1c(N2CCCCC2)cnc2ccccc12 [drawing 149]	–	–	–	–	inhibition at 10 µM (MAO-B; [3]): 82.9%; inhibition at 10 µM (MAO-A; [4]): 44.1%
Nc1c2c(nc(C3CCCCC3)c1N1CCCCC1)CCCC2 [Compound 28]	22.2	85.2	–	80.5	–
Nc1c2c(nc(Nc3ccccc3)c1N1CCOCC1)CCCC2 [Compound 15, 4-amino-2-anilino-3-morpholino-5,6,7,8-tetrahydroquinoline]	37.2	85.4	80.4 ± 14.6	–	–
Nc1c(N2CCCCC2)c(C2CCCCC2)nc2ccccc12 [Compound 26]	–	68.2	–	55.4	–
Nc1c(N2CCOCC2)c(C2CCCCC2)nc2ccccc12 [Compound 18, 4-amino-2-cyclohexyl-3-morpholinoquinoline]	–	–	116.4 ± 29.2	–	–
Nc1ccnc(C2CCCCC2=O)c1N1CCCCC1 (centres unmarked) [Compound 50]	–	–	83.4 ± 14.8	–	–
CCCC(C)c1nc2c(c(N)c1N1CCOCC1)CCCC2 (centres unmarked) [Compound 40]	–	–	113.1 ± 29.6	–	–
CCN(CC)c1c(NC2CCCCC2)nc2c(c1N)CCCC2 [Compound 34]	–	80.0	–	84.8	–
Nc1c(N2CCOCC2)c(Nc2ccccc2)nc2ccccc12 [Compound 13, 4-amino-2-anilino-3-morpholinoquinoline]	–	–	100.2 ± 17.8	–	–
Nc1c2c(nc(NC3CCCCC3)c1N1CCOCC1)CCCC2 [Compound 16]	25.9	88.1	102.1 ± 22.3	–	–
CCCN(CCC)c1c(C2CCCCC2)nc2c(c1N)CCCC2 [Compound 32]	28.7	73.2	109.7 ± 16.6	71.0	–
CN1CCN(c2cnc3ccccc3c2N)CC1 [Compound 2]	27.1	–	92.1 ± 13.5	–	–
CCN(CC)c1c(C2CCCCC2O)nc2c(c1N)CCCC2 (centres unmarked) [Compound 23]	–	73.7	–	83.0	–
CCOc1nc2ccccc2c(N)c1N1CCCCC1 [Compound 44]	–	–	90.4 ± 12.4	–	–
CCCN(CCC)c1c(C2CCCCC2O)nc2c(c1N)CCCC2 (centres unmarked) [Compound 30]	–	76.9	–	79.2	–
Nc1c2c(nc(C3CCCCC3O)c1N1CCOCC1)CCCC2 (centres unmarked) [Compound 6, 4-amino-g-(2.-hydroxycyclohexyl)-3-morpholino-5,6,7,8-tetrahydroquinoline]	36.9	82.6	144.8 ± 45.1	–	–
Nc1ccnc(C2CCCCC2=O)c1N1CCOCC1 (centres unmarked) [Compound 49]	–	–	–	67.5	inhibition at 10 µM (MAO-B; [3]): 71.2%; inhibition at 10 µM (MAO-A; [4]): 54.5%
CCN(CC)c1c(C2CCCCC2)nc2ccccc2c1N [Compound 24]	–	68.2	94.2 ± 14.7	59.6	–
CCN(CC)c1c(C2CCCCC2=O)nc2ccccc2c1N (centres unmarked) [Compound 22]	–	–	144.8 ± 25.5	–	–
CCNc1nc2ccccc2c(N)c1N1CCCCC1 [Compound 45]	–	79.8	70.7 ± 6.8	82.3	–
